System: IgE antibodies from patients
Assay: Wheat epitope mapping (2): overlapping 10-amino-acid peptide fragments shifted by one amino acid;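 on Rank of partial sequence as epitope binding to IgE antibody: key = sequence deemed particularly important within the common 15-residue sequence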;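 on epitope sequence binding to IgE antibody, rank (Key/Preferably/More preferably): key of grades: preferably = shorter partial sequence still acting as epitope; more preferably = sequence improving IgE binding; key = particularly important sequence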
Assay type: binding, human
Summary of the method: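 Cellulose-bound 10-mer peptides offset by one residue were probed with patient serum IgE and detected by chemiluminescence. Secondary-antibody-only signals were subtracted per peptide. Residual binding was expressed as % of the parent overlapping peptide, scored as none (<30%), poor (30–<50%), somewhat poor (50–<70%) or retained (≥70%).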

[1] = serum of patient P14 (WDEIA), sequence without X
[2] = serum of patient P35 (WDEIA), sequence without X
[3] = serum of patient G1 (adult, general immediate type allergy to wheat)
[4] = serum of patient P35 (WDEIA), partial sequence
[5] = serum of patient P16 (WDEIA), sequence without X
[6] = serum of patient P52 (child, general immediate type allergy to wheat), sequence without X

## 2597 (QQSTYQLV; REGION 1..8: note = epitope) [compound 2597]
Serum of patient P53 (child, general immediate type allergy to wheat), partial sequence
  Epitope sequence binding to IgE antibody, rank of the sequence: Key

## 2257 (SRLLRGIRN; REGION 1..9: note = epitope) [compound 2257]
Serum of patient P55 (child, general immediate type allergy to wheat), sequence without X
  Epitope sequence binding to IgE antibody, rank of the sequence (Key/Preferably/More preferably): Key

## 2280 (DKRVIERFEK; REGION 1..10: note = epitope) [compound 2280]
[1]
  Epitope sequence binding to IgE antibody, rank of the sequence (Key/Preferably/More preferably): Preferably

## 2624 (AKPLL; REGION 1..5: note = epitope) [compound 2624]
Serum of patient G3 (adult, general immediate type allergy to wheat), partial sequence
  Epitope sequence binding to IgE antibody, rank of the sequence: Key

## 2453 (LKAWSGK; REGION 1..7: note = epitope) [compound 2453]
[2]
  Epitope sequence binding to IgE antibody, rank of the sequence (Key/Preferably/More preferably): Preferably

## 1591 (QPFPQTQQP; REGION 1..9: note = epitope) [compound 1591]
Serum of patient P50 (child, general immediate type allergy to wheat), sequence without X
  Rank of partial sequence as epitope binding to IgE antibody: Key

## 1467 (YLQPQQPIS; REGION 1..9: note = epitope) [compound 1467]
Serum of patient P26 (WDEIA), sequence without X
  Rank of partial sequence as epitope binding to IgE antibody: Preferably

## 1429 (YLQPQQ; REGION 1..6: note = epitope) [compound 1429]
[1]
  Rank of partial sequence as epitope binding to IgE antibody: Key

## 1781 (KEVSSYLKKV; REGION 1..10: note = epitope) [compound 1781]
Serum of patient G4 (adult, general immediate type allergy to wheat)
  epitope sequence binding to IgE antibody, rank (Key/Preferably/More preferably): Key

## 1741 (SQVIIM; REGION 1..6: note = epitope) [compound 1741]
[3]
  epitope sequence binding to IgE antibody, rank (Key/Preferably/More preferably): Key

## 1739 (KEAANFT; REGION 1..7: note = epitope) [compound 1739]
[3]
  epitope sequence binding to IgE antibody, rank (Key/Preferably/More preferably): Preferably

## 2604 (YQLVQ; REGION 1..5: note = epitope) [compound 2604]
Serum of patient P54 (child, general immediate type allergy to wheat), partial sequence
  Epitope sequence binding to IgE antibody, rank of the sequence: Preferably

## 1225 (QQPIQQQP; REGION 1..8: note = epitope) [compound 1225]
Serum of patient P12 (WDEIA), sequence without X
  Epitope sequence binding to IgE antibody, rank of the sequence: Preferably

## 2554 (LQQSTYQLVQ; REGION 1..10: note = epitope) [compound 2554]
Serum of patient P20 (WDEIA), partial sequence
  Epitope sequence binding to IgE antibody, rank of the sequence: Key

## 1635 (YNPD; REGION 1..4: note = epitope) [compound 1635]
Serum of patient P32 (WDEIA), sequence without X
  Rank of partial sequence as epitope binding to IgE antibody: Key

## 1809 (ELEALPKFL; REGION 1..9: note = epitope) [compound 1809]
Serum of patient P26 (WDEIA)
  epitope sequence binding to IgE antibody, rank (Key/Preferably/More preferably): Preferably

## 2694 (YKGPTL; REGION 1..6: note = epitope) [compound 2694]
[4]
  Epitope sequence binding to IgE antibody, rank of the sequence: Key

## 1507 (YLQPQ; REGION 1..5: note = epitope) [compound 1507]
Serum of patient G9 (adult, general immediate type allergy to wheat), sequence without X
  Rank of partial sequence as epitope binding to IgE antibody: Key

## 1880 (TVRTLQRT; REGION 1..8: note = epitope) [compound 1880]
Serum of patient P33 (WDEIA)
  epitope sequence binding to IgE antibody, rank (Key/Preferably/More preferably): Preferably

## 1845 (YTVRTLQR; REGION 1..8: note = epitope) [compound 1845]
Serum of patient P12 (WDEIA)
  epitope sequence binding to IgE antibody, rank (Key/Preferably/More preferably): Preferably

## 2745 (KIGGIG; REGION 1..6: note = epitope) [compound 2745]
Serum of patient P34 (WDEIA), partial sequence
  Epitope sequence binding to IgE antibody, rank of the sequence: Preferably

## 1687 (EAANFT; REGION 1..6: note = epitope) [compound 1687]
Serum of patient P5 (WDEIA), sequence without X
  Rank of partial sequence as epitope binding to IgE antibody: Key

## 1722 (KEAANFT; REGION 1..7: note = epitope) [compound 1722]
Serum of patient P50 (child, general immediate type allergy to wheat)
  epitope sequence binding to IgE antibody, rank (Key/Preferably/More preferably): Preferably

## 1642 (YNPD; REGION 1..4: note = epitope) [compound 1642]
[2]
  Rank of partial sequence as epitope binding to IgE antibody: Key

## 2559 (LVQQLCC; REGION 1..7: note = epitope) [compound 2559]
Serum of patient P21 (WDEIA), partial sequence
  Epitope sequence binding to IgE antibody, rank of the sequence: Key

## 1927 (QFPGQQ; REGION 1..6: note = epitope) [compound 1927]
Serum of patient P14 (WDEIA)
  epitope sequence binding to IgE antibody, rank (Key/Preferably/More preferably): Key

## 2304 (DKRVIERFE; REGION 1..9: note = epitope) [compound 2304]
Serum of patient G7 (adult, general immediate type allergy to wheat), sequence without X
  Epitope sequence binding to IgE antibody, rank of the sequence (Key/Preferably/More preferably): Key

## 1850 (VRTLQ; REGION 1..5: note = epitope) [compound 1850]
Serum of patient P16 (WDEIA)
  epitope sequence binding to IgE antibody, rank (Key/Preferably/More preferably): Key

## 1173 (QQQQFPPQQP; REGION 1..10: note = epitope) [compound 1173]
Serum of patient P7 (WDEIA), sequence without X
  Epitope sequence binding to IgE antibody, rank of the sequence: Preferably

## 1822 (SGKELEALPK; REGION 1..10: note = epitope) [compound 1822]
Serum of patient P35 (WDEIA)
  epitope sequence binding to IgE antibody, rank (Key/Preferably/More preferably): Key

## 1436 (LQPQQP; REGION 1..6: note = epitope) [compound 1436]
[5]
  Rank of partial sequence as epitope binding to IgE antibody: Key

## 1856 (YTVRTLQRT; REGION 1..9: note = epitope) [compound 1856]
Serum of patient P18 (WDEIA)
  epitope sequence binding to IgE antibody, rank (Key/Preferably/More preferably): More preferably

## 2719 (YKIGG; REGION 1..5: note = epitope) [compound 2719]
Serum of patient P25 (WDEIA), partial sequence
  Epitope sequence binding to IgE antibody, rank of the sequence: Key

## 1881 (TVRTLQR; REGION 1..7: note = epitope) [compound 1881]
Serum of patient P33 (WDEIA)
  epitope sequence binding to IgE antibody, rank (Key/Preferably/More preferably): Key

## 1784 (LKKVGYNP; REGION 1..8: note = epitope) [compound 1784]
Serum of patient G5 (adult, general immediate type allergy to wheat)
  epitope sequence binding to IgE antibody, rank (Key/Preferably/More preferably): Key

## 2512 (SQVSF; REGION 1..5: note = epitope) [compound 2512]
Serum of patient P36 (WDEIA), partial sequence
  Epitope sequence binding to IgE antibody, rank of the sequence: Key

## 1525 (LVQQQQFLG; REGION 1..9: note = epitope) [compound 1525]
Serum of patient P10 (WDEIA), sequence without X
  Rank of partial sequence as epitope binding to IgE antibody: Preferably

## 1924 (FPGQQ; REGION 1..5: note = epitope) [compound 1924]
Serum of patient P12 (WDEIA)
  epitope sequence binding to IgE antibody, rank (Key/Preferably/More preferably): Key

## 1926 (QQQFPGQQQ; REGION 1..9: note = epitope) [compound 1926]
Serum of patient P14 (WDEIA)
  epitope sequence binding to IgE antibody, rank (Key/Preferably/More preferably): Preferably

## 2716 (YKIGGI; REGION 1..6: note = epitope) [compound 2716]
Serum of patient P18 (WDEIA), partial sequence
  Epitope sequence binding to IgE antibody, rank of the sequence: Preferably

## 1409 (QPQQPISQQQ; REGION 1..10: note = epitope) [compound 1409]
Serum of patient P3 (WDEIA), sequence without X
  Epitope sequence binding to IgE antibody, rank of the sequence: Preferably

## 2252 (LLRGIRNYRV; REGION 1..10: note = epitope) [compound 2252]
[6]
  Epitope sequence binding to IgE antibody, rank of the sequence (Key/Preferably/More preferably): More preferably

## 2472 (SGKTENEE; REGION 1..8: note = epitope) [compound 2472]
[6]
  Epitope sequence binding to IgE antibody, rank of the sequence (Key/Preferably/More preferably): More preferably

## 1437 (PQQPISQQQA; REGION 1..10: note = epitope) [compound 1437]
[5]
  Rank of partial sequence as epitope binding to IgE antibody: Preferably

## 1932 (QVPLVQQQ; REGION 1..8: note = epitope) [compound 1932]
Serum of patient P17 (WDEIA)
  epitope sequence binding to IgE antibody, rank (Key/Preferably/More preferably): Preferably

## 1307 (NVEN; REGION 1..4: note = epitope) [compound 1307]
Serum of patient P8 (WDEIA), sequence without X
  Epitope sequence binding to IgE antibody, rank of the sequence: Key

## 2579 (YQLVQQ; REGION 1..6: note = epitope) [compound 2579]
Serum of patient P30 (WDEIA), partial sequence
  Epitope sequence binding to IgE antibody, rank of the sequence: Key

## 1821 (SGKELEALPK; REGION 1..10: note = epitope) [compound 1821]
Serum of patient P34 (WDEIA)
  epitope sequence binding to IgE antibody, rank (Key/Preferably/More preferably): Key

## 2228 (NYRVAI; REGION 1..6: note = epitope) [compound 2228]
Serum of patient P18 (WDEIA), sequence without X
  Epitope sequence binding to IgE antibody, rank of the sequence (Key/Preferably/More preferably): Key

## 2730 (YKIGGIGTV; REGION 1..9: note = epitope) [compound 2730]
Serum of patient P28 (WDEIA), partial sequence
  Epitope sequence binding to IgE antibody, rank of the sequence: Preferably

## 2658 (FEKEAAE; REGION 1..7: note = epitope) [compound 2658]
[4]
  Epitope sequence binding to IgE antibody, rank of the sequence: Key

## 2502 (SSQVSFQPSQ; REGION 1..10: note = epitope) [compound 2502]
Serum of patient P15 (WDEIA), partial sequence
  Epitope sequence binding to IgE antibody, rank of the sequence: Preferably

## 2663 (FEKEAA; REGION 1..6: note = epitope) [compound 2663]
Serum of patient P50 (child, general immediate type allergy to wheat), partial sequence
  Epitope sequence binding to IgE antibody, rank of the sequence: Preferably

## 2243 (RLLRGIRNY; REGION 1..9: note = epitope) [compound 2243]
Serum of patient P36 (WDEIA), sequence without X
  Epitope sequence binding to IgE antibody, rank of the sequence (Key/Preferably/More preferably): Key

## 2394 (HDIDRCAYV; REGION 1..9: note = epitope) [compound 2394]
Serum of patient P34 (WDEIA), sequence without X
  Epitope sequence binding to IgE antibody, rank of the sequence (Key/Preferably/More preferably): Key

## 1414 (YLQPQQPISQ; REGION 1..10: note = epitope) [compound 1414]
Serum of patient P4 (WDEIA), sequence without X
  Epitope sequence binding to IgE antibody, rank of the sequence: Preferably

— patent US20240393292A1, “ALLERGY ANTIGEN AND EPITOPE THEREOF” (HOYU CO., LTD., priority 2019, published 2024)
